From the supplement of paper PMC10307832

Legend:
Assay in all cases: relative viability (nuclei count vs DMSO), 5 days (fraction); higher = more cells survive
Bleomycin + Tozasertib = compound: CC1=C(N=C(N=C1N)[C@H](CC(=O)N)NC[C@@H](C(=O)N)N)C(=O)N[C@@H]([C@H](C2=CN=CN2)OC3C(C(C(C(O3)CO)O)O)OC4C(C(C(C(O4)CO)O)OC(=O)N)O)C(=O)N[C@H](C)[C@H]([C@H](C)C(=O)N[C@@H]([C@@H](C)O)C(=O)NCCC5=NC(=CS5)C6=NC(=CS6)C(=O)NCCC[S+](C)C)O [Bleomycin] + Cc1cc(Nc2cc(N3CCN(C)CC3)nc(Sc3ccc(NC(=O)C4CC4)cc3)n2)n[nH]1 [Tozasertib] (partner 0.1 µM); conditions: main component drawn
How it was run: (§1)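 Five library-drug doses in √10 steps were combined with a fixed anchor-drug dose, or a single drug was given alone, by pin tool to lung cancer cell lines in 1536-well plates the day after seeding. Nuclei were stained and counted after 5 days. Relative viability is the nuclei count in treated wells over that in vehicle wells, taken as the median of duplicate plates.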

Etoposide + Alpelisib = compound: COc1cc([C@@H]2c3cc4c(cc3[C@@H](O[C@@H]3O[C@@H]5CO[C@@H](C)O[C@H]5[C@H](O)[C@H]3O)[C@H]3COC(=O)[C@H]23)OCO4)cc(OC)c1O [Etoposide] + Cc1nc(NC(=O)N2CCC[C@H]2C(N)=O)sc1-c1ccnc(C(C)(C)C(F)(F)F)c1 [Alpelisib] (partner 2 µM)
How it was run: as §1

Bleomycin + OSI-027 = compound: CC1=C(N=C(N=C1N)[C@H](CC(=O)N)NC[C@@H](C(=O)N)N)C(=O)N[C@@H]([C@H](C2=CN=CN2)OC3C(C(C(C(O3)CO)O)O)OC4C(C(C(C(O4)CO)O)OC(=O)N)O)C(=O)N[C@H](C)[C@H]([C@H](C)C(=O)N[C@@H]([C@@H](C)O)C(=O)NCCC5=NC(=CS5)C6=NC(=CS6)C(=O)NCCC[S+](C)C)O [Bleomycin] + COc1cccc2cc(-c3nc([C@H]4CC[C@H](C(=O)O)CC4)n4ncnc(N)c34)[nH]c12 [OSI-027] (partner 0.5 µM); conditions: main component drawn
How it was run: as §1

Bleomycin + AZD7762 = compound: CC1=C(N=C(N=C1N)[C@H](CC(=O)N)NC[C@@H](C(=O)N)N)C(=O)N[C@@H]([C@H](C2=CN=CN2)OC3C(C(C(C(O3)CO)O)O)OC4C(C(C(C(O4)CO)O)OC(=O)N)O)C(=O)N[C@H](C)[C@H]([C@H](C)C(=O)N[C@@H]([C@@H](C)O)C(=O)NCCC5=NC(=CS5)C6=NC(=CS6)C(=O)NCCC[S+](C)C)O [Bleomycin] + NC(=O)Nc1cc(-c2cccc(F)c2)sc1C(=O)N[C@H]1CCCNC1 [AZD7762] (partner 0.2 µM); conditions: main component drawn
How it was run: as §1

Cell Line	relative viability (Bleomycin + Tozasertib; first compound 0.01 µM)	relative viability (Bleomycin + Tozasertib; first compound 0.03162 µM)	relative viability (Bleomycin + Tozasertib; first compound 0.1 µM)	relative viability (Bleomycin + Tozasertib; first compound 0.3162 µM)	relative viability (Bleomycin + Tozasertib; first compound 1 µM)	relative viability (Etoposide + Alpelisib; first compound 0.01 µM)	relative viability (Etoposide + Alpelisib; first compound 0.03162 µM)	relative viability (Etoposide + Alpelisib; first compound 0.1 µM)	relative viability (Etoposide + Alpelisib; first compound 0.3162 µM)	relative viability (Etoposide + Alpelisib; first compound 1 µM)	relative viability (Bleomycin + OSI-027; first compound 0.01 µM)	relative viability (Bleomycin + OSI-027; first compound 0.03162 µM)	relative viability (Bleomycin + OSI-027; first compound 0.1 µM)	relative viability (Bleomycin + OSI-027; first compound 0.3162 µM)	relative viability (Bleomycin + OSI-027; first compound 1 µM)	relative viability (Bleomycin + AZD7762; first compound 0.01 µM)	relative viability (Bleomycin + AZD7762; first compound 0.03162 µM)	relative viability (Bleomycin + AZD7762; first compound 0.1 µM)	relative viability (Bleomycin + AZD7762; first compound 0.3162 µM)	relative viability (Bleomycin + AZD7762; first compound 1 µM)
LU99A	0.27	0.25	0.216	0.193	0.147	0.522	0.629	0.331	0.24	0.143	0.253	0.289	0.259	0.234	0.161	0.298	0.261	0.203	0.157	0.121
NCI-H2405	0.703	0.758	0.682	0.475	0.398	0.714	0.801	0.482	0.582	0.34	0.617	0.596	0.567	0.477	0.346	0.668	0.683	0.632	0.531	0.304
HCC-15	0.308	0.343	0.303	0.148	0.153	0.894	0.898	0.721	0.333	0.122	0.645	0.612	0.533	0.182	0.152	1.07	1.03	1.13	0.579	0.599
HCC-44	0.273	0.312	0.302	0.19	0.137	0.635	0.89	0.857	0.569	0.323	0.279	0.38	0.248	0.205	0.175	0.955	1	0.965	0.646	0.573
HCC-78	0.335	0.356	0.357	0.269	0.355	0.316	0.354	0.212	0.213	0.161	0.38	0.348	0.309	0.311	0.29	0.607	0.683	0.599	0.528	0.493
NCI-H838	0.238	0.211	0.178	0.15	0.139	0.951	1.08	0.887	0.666	0.387	0.347	0.269	0.186	0.173	0.174	0.701	0.68	0.661	0.594	0.649
NCI-H2126	0.736	0.865	0.861	0.421	0.32	0.75	0.75	0.52	0.723	0.306	0.644	0.774	0.738	0.522	0.585	0.932	0.963	1.15	0.894	0.922
BEN	0.487	0.519	0.452	0.431	0.475	0.841	1.08		0.87	0.852	0.284	0.299	0.286	0.243	0.288	0.735	0.736	0.66	0.534	0.606
LCLC-103H	0.427	0.479	0.476	0.279	0.234	1.02	1.12	0.774	0.973	0.703	0.39	0.451	0.468	0.34	0.219	0.7	0.8	0.792	0.666	0.418
EKVX	0.434	0.413	0.365	0.191	0.204	0.693	0.974	0.584	0.693	0.343	0.636	0.711	0.598	0.398	0.387	0.607	0.598	0.544	0.538	0.237
LXF-289	0.179	0.193	0.181	0.0822	0.0688	1.02	1.07	1.04	0.655	0.244	0.647	0.781	0.693	0.315	0.169	1.01	1.07	0.928	0.419	0.143
ABC-1	0.199	0.209	0.197	0.178	0.198	1.03	1.1	1.02	0.577	0.243	0.394	0.428	0.388	0.18	0.212	0.748	1	0.845	0.573	0.34
NCI-H2085	0.758	0.74	0.783	0.539	0.428	0.882	0.939	0.824	0.552	0.35	0.832	0.761	0.574	0.317	0.44	0.896	0.967	0.828	0.301	0.464
NCI-H1793	0.339	0.308	0.362	0.191	0.171	0.563	0.78		0.718	0.341	0.271	0.311	0.249	0.156	0.138	0.316	0.564	0.341	0.159	0.177
LC-2-ad	0.395	0.354	0.34	0.247	0.276	0.888	0.911	0.846	0.532	0.172	0.552	0.711	0.382	0.302	0.221	0.761	0.775	0.644	0.316	0.26
NCI-H1355	0.511	0.596	0.478	0.255	0.224	0.811	0.969	0.343	0.53	0.304	0.459	0.416	0.427	0.258	0.194	0.783	0.9	0.783	0.63	0.323
H3255	0.543	0.489	0.622	0.427	0.278	0.606	0.758	0.448	0.585	0.298	0.524	0.6	0.504	0.53	0.429	0.905	0.819	0.713	0.55	0.401
NCI-H1993	0.505	0.501	0.551	0.575	0.539	0.741	0.719	0.649	0.624	0.533	0.541	0.483	0.513	0.535	0.422	0.723	0.822	0.739	0.491	0.517
NCI-H1734	0.222	0.223	0.279	0.199	0.15	0.698	0.822	0.509	0.517	0.381	0.565	0.544	0.465	0.254	0.226	0.485	0.449	0.325	0.21	0.151
HOP-62	0.229	0.208	0.194	0.144	0.102	0.995	1.25	0.518	0.663	0.294	0.383	0.498	0.333	0.184	0.127	0.325	0.292	0.209	0.16	0.0932
LOU-NH91	0.504	0.289	0.404	0.323	0.274	0.7	0.744	0.593	0.62	0.469	0.667	0.564	0.555	0.503	0.306	0.715	0.667	0.576	0.421	0.369
NCI-H23	0.208	0.268	0.217	0.161	0.135	0.578	0.654	0.358	0.364	0.236	0.361	0.401	0.272	0.141	0.145	0.259	0.241	0.159	0.121	0.119
PC-3 [JPC-3]	0.799	0.813	0.781	0.537	0.492	0.946	1.05	0.833	0.984	0.777	0.687	0.789	0.648	0.506	0.41	0.727	0.691	0.768	0.513	0.428
NCI-H1437	0.369	0.404	0.369	0.309	0.324	0.915	0.945	0.883	0.42	0.256	0.76	0.848	0.748	0.522	0.368	1.04	1.12	1.14	0.765	0.746
NCI-H1666	0.4	0.462	0.458	0.391	0.344	0.929	0.931	0.69	0.315	0.28	0.678	0.671	0.636	0.515	0.408	0.972	0.695	0.57	0.512	0.486
NCI-H1651	0.529	0.455	0.303	0.156	0.105	0.844	0.833	0.984	0.511	0.24	0.671	0.524	0.551	0.323	0.186	0.484	0.46	0.323	0.266	0.219
NCI-H1755	0.54	0.54	0.636	0.468	0.333	0.919	0.907	0.888	0.871	0.639	0.67	0.727	0.706	0.718	0.427	0.41	0.495	0.36	0.353	0.311
NCI-H727	0.761	0.578	0.732		0.596	0.616	0.524	0.566	0.58	0.423	0.731	0.685	0.637		0.528	0.683	0.574	0.451	0.33	0.463
